Test results from patent US12383632B2, “Doxorubicin containing nanoplexes and uses thereof” (University of Maryland, Baltimore, priority 2019, dated 2025).

Tests used:
MDA-MB-435 = test: In vivo tumor experiments, tumor size; set-up: species or system mice; conditions: low dose 2.2 μg/injection, versus untreated controls
Method: MDA-MB-435 cells (4×10^6 cells per injection) were subcutaneously injected bilaterally into each mouse. After 4 days, when the subcutaneous tumors were about 45 mm3, the mice were separated into groups of 6 mice to determine the efficacy of treatments. The groups were as follows: untreated, nanoplex alone, low dose doxorubicin (2.2 μg/injection), high dose doxorubicin (4.4 μg/injection, low dose doxorubicin nanoplex (2.2 μg/injection), high dose doxorubicin nanoplex (4.4 μg/injection). The mice were given five intravenous injections of the various treatments. Nanoplexes were administered every 2 to 3 days (Monday, Wednesday, Friday). Tumor size was assessed with calipers before each injection and 2 days after the last injection; the size was calculated by formula ½×d1×d22, where d2 is the smaller of the two measurements. Mice were weighed before each injection with tumor weight subtracted to obtain the final weight.

Ki67 = test: Immunofluorescence of Ki67 in tumor sections; format: in vivo, mice
Method: Quantification of tumor cells staining positive for Ki67 with different treatment groups is shown, expressed as the percentage of Ki67 positive cells. The data represent the mean+SD of four HPF images (60×) for each treatment. **, p<0.01, ***, p<0.001. N=˜50 cells/image.
After the tumors were fixed and a heat-mediated antigen retrieval step was performed, the tumors were permeabilized (0.1% Triton X-100) for 10 min and then blocked with 5% BSA in 0.1% PBS-Tween for 2 h. […] Nuclear DNA was labeled with DAPI.

COc1cccc2c1C(=O)c1c(O)c3c(c(O)c1C2=O)C[C@@](O)(C(=O)CO)C[C@@H]3O[C@H]1C[C@H](N)[C@H](O)[C@H](C)O1 [free doxorubicin, doxorubicin]
effect on growth / size of tumors (words) (MDA-MB-435): does not reduce the size of tumors | effect on growth / size of tumors (words) (MDA-MB-435; listed as doxorubicin): no effect | tumor cells stained positive for Ki67 (Ki67; high dose, 4.4 μg doxorubicin/injection): about 57% | tumor cells stained positive for Ki67 (Ki67; low dose, 2.2 μg doxorubicin/injection): 80%
